# Laboratory results taken from patent US6903183B1, “Compositions and methods for regulation of steroidogenesis” (Texas Tech University Health Services Center, priority 1996, dated 2005).
# B1: DAX-1: transcription repressor, unusual member of the nuclear hormone receptor superfamily, overexpressed in Y-1 cells (protein, UniProt Q61066 1-472, looked up)
# Nuclear receptor subfamily 0 …: MAGEDHPWQGSILYNLLMSAKQKHASQEEREVRLGAQCWGCACGAQPVLGGERLSGGQARSLLYRCCFCGENHPRQGGILYSMLTNARQPSVATQAPRARFGAPCWGCACGSAEPLVGREGLPAGQAPSLLYRCCFCGEEHPRQGSILYSLLTSAQQTHVSREAPEAHRRGEWWQLSYCTQSVGGPEGLQSTQAMAFLYRSYVCGEEQPQQISVASGTPVSADQTPATPQEQPRAPWWDASPGVQRLITLKDPQVVCEAASAGLLKTLRFVKYLPCFQILPLDQQLVLVRSCWAPLLMLELAQDHLHFEMMEIPETNTTQEMLTTRRQETEGPEPAEPQATEQPQMVSAEAGHLLPAAAVQAIKSFFFKCWSLNIDTKEYAYLKGTVLFNPDLPGLQCVKYIEGLQWRTQQILTEHIRMMQREYQIRSAELNSALFLLRFINSDVVTELFFRPIIGAVSMDDMMLEMLCAKL
# B2: adrenodoxin: another mitochondrial imported protein (protein, UniProt P10109 61-184, looked up)
# Adrenodoxin, mitochondrial: SSSEDKITVHFINRDGETLTTKGKVGDSLLDVVVENNLDIDGFGACEGTLACSTCHLIFEDHIYEKLDAITDEENDMLDLAYGLTDRSRLGCQICLTKSMDNMTVRVPETVADARQSIDVGKTS
# How the values were obtained:
# StAR protein [1] = test: Immunoblot analysis of 30 kDa (StAR) protein in MA-10 cells; assay type: cell-based, mouse
# Description: Immunoblot Analysis. Mitochondria were isolated from either MA-10 or COS 1 cells transfected with either pCMV or pCMV+30 kDa cDNA 48 hours post-transfection. For experiments in which progesterone production was measured (as described above), cells were solubilized directly in the well with 0.1% SDS, the cell homogenates were collected and combined from all 8 wells, and the protein was precipitated using trichloracetic acid. The protein was solubilized in sample buffer (25 mM Tris/Cl, pH 6.8, 1% SDS, 5% β-mercaptoethanol, 1 mM EDTA, 4% glycerol, and 0.01% bromophenol blue) and loaded onto a 12.5% SDS-PAGE minigel (Mini-Protein II System, Bio-Rad, Richmond, Calif.). […] The membrane was washed as before, and the specific signal was detected by chemiluminescence using the Renaissance kit from Du Pont-NEN.
# In order to verify that the cDNA was being expressed in eukaryotic cells, COS 1 cells were used to transfect the pCMV+30 kDa cDNA since the pCMV plasmid can be replicated in these cells and approximately 80% of the cells are transfected with plasmid DNA based on the expression of reporter protein. Forty-eight hours post-transfection, mitochondria were isolated and the 30 kDa protein expression was determined by immunoblot analysis. […] In addition, a 36.5 kDa protein was detected in the COS 1 cells which would be consistent with the precursor protein. […]
# StAR mRNA = test: Northern blot analysis of StAR mRNA in MA-10 cells; assay type: cell-based, mouse
# Description: MA-10 cells were stimulated with Bt2cAMP and StAR mRNA levels were determined by Northern blot analysis. Within 1 hour of Bt2cAMP stimulation, two major transcripts of approximately 3400 nt and 1600 nt, and one minor transcript of 2700 nt, were detected. […] Subsequent to the marked mRNA induction, the greatest induction (10x) in StAR protein was detected after 4 hours of Bt2cAMP stimulation by immunoblot analysis. Comparatively lower levels of StAR could be detected after 1 hour of hormone stimulation with maximal levels accumulated within 8 hours.
# StAR protein [2] = test: Synthesis of StAR protein in MA-10 cells after CRH, dbcAMP or hCG; assay type: cell-based, mouse
# StAR protein [3] = test: Immunoblot of StAR protein expression in H295R cells; assay type: cell-based, human
# Description: (§1) FIG. 4. Effect of KN93 on agonist-stimulated aldosterone production and StAR protein expression in H295R cells. […] The medium aldosterone content was determined by R.I.A. and normalized to the tissue culture well protein content. Data points represent the mean ±SE of values from six separate culture wells expressed as fold increase over basal. Significant inhibition relative to the control response is indicated at *p<0.01. StAR protein was examined using equivalent amounts of total cellular lysate (30 μg) by immunoblot analysis as described in the Methods. Results are representative of those obtained from three separate experiments.
# For each treatment, cells were solubilized as described above and an equivalent amount of protein (30 μg) for each sample were separated by SDS-PAGE (12.5%) and then electrophoretically transferred to polyvinylidene difluoride membrane as previously described (Clark et al (1994) J. Biol. Chem., 269:2831-322, reference specifically incorporated herein by reference). Immunoblot analysis was as described (Id) using a rabbit sera containing the specific StAR antipeptide antibody (see ANTIBODIES infra) as the primary label and a donkey anti-rabbit IgG conjugated with horseradish peroxidase (Amersham, Arlington Heights, Ill.). The specific signal was detected by chemiluminescence assays using the Renaissance kit from DuPont NEN (Boston, Mass.) and the StAR specific bands were quantitated by BioImage Visage 2000 computer-assisted image analysis (BioImage, Ann Arbor, Mich.). Different exposure times were used to insure linearity.
# H295R cells = test: Agonist-stimulated aldosterone production (steroidogenesis) in H295R cells; assay type: cell-based, human
# Description: as §1
# The human adrenocortical carcinoma-derived cell line (H295R) was used. This cell line secretes multiple steroids, including aldosterone and cortisol. […]
# Subcultured cells were maintained 24 hours in DME/F12 medium containing 0.2% calf serum, 0.01% BSA and antibiotics (low serum). […] The aldosterone and cortisol contents of medium recovered from each well were determined with aldosterone and cortisol standards prepared in low-serum medium by commercial aldosterone and cortisol radioimmunoassays (Diagnostic System Laboratories; Webster, Tex.). Results of aldosterone and cortisol assays were normalized to cellular protein per well, expressed as pmol per mg cell protein and transformed to percentage of the control response where indicated. […]
# Y-1 adrenal tumor cells = test: Overexpression of DAX-1 in Y-1 adrenal tumor cells; assay type: cell-based, mouse
# [4] = tested on: mitochondria isolated from MA-10 mouse Leydig tumor cells; test: In vitro reconstituted system: pregnenolone synthesis by isolated mitochondria; assay type: biochemical; settings: protein added to isolated mitochondria
# Excerpt: Rat heart mitochondria were used for the import assay with bovine StAR, indicating import of StAR is not dependent upon factors specific to mitochondria isolated from steroidogenic tissues. The ability of StAR to increase steroid production has also been confirmed in an in vitro reconstituted system.
# [5] = biological target: protein complex purified from MA-10 cell mitochondrial membranes; test: competition against 35S-labeled StAR signal peptide on liposomes carrying the complex, gel filtration
molecule,measurement,setting,value
"CCCC(=O)Nc1ncnc2c1ncn2[C@@H]1O[C@@H]2COP(=O)(O)O[C@H]2[C@H]1OC(=O)CCC [Bt2cAMP, N^6, 2′-O-dibutyryladenosine-3′:5′-cyclic monophosphate]",time to maximal accumulated StAR protein levels,StAR protein [1],≤ 8 h
same,StAR protein induction,StAR protein [1]; after 4 hours of stimulation,10 x
same,time to maximal StAR mRNA levels,StAR mRNA,6 h
same,StAR mRNA induction,StAR mRNA; after 2 hours of stimulation,20 x
same,concentration of maximal response (StAR synthesis),StAR protein [2],1 µM
same,synthesis of the StAR protein,StAR protein [2],dose-dependent increase
same,time of maximal response following stimulation,StAR protein [2]; CRH at 1 μM,6 h
"COc1ccc(S(=O)(=O)N(CCO)c2ccccc2CN(C)CC=Cc2ccc(Cl)cc2)cc1 [KN93, 2-[N-(2-hydroxyethyl)-N-(4-methoxybenzenesulfonyl)]amino-N-(4-chlorocinnamyl)-N-methylbenzylamine]","induction of StAR protein by Ang II, K+, or Bay K",StAR protein [3]; KN93 between 1 and 3 μM,did not affect
same,agonist-induction of StAR protein expression,StAR protein [3]; co-treatment with KN93 3 μM,not affected
same,aldosterone production,H295R cells; KN93 3 μM,potently inhibited
same,block of steroidogenesis,H295R cells; KN93 between 1 and 3 μM,60 to 80%
B1,StAR mRNA and protein synthesis,Y-1 adrenal tumor cells,inhibition
same,steroid synthesis,Y-1 adrenal tumor cells,complete inhibition
B2,pregnenolone synthesis,[4],not affected
"MFLATFKLCAGSSYRHMRNMKGLRHQ [StAR signal peptide (unlabeled, commercially synthesized)]",reduction of total radioactivity in the liposome fraction,[5],65%
